Data taken from patent publication US20240245793A1, “PSD-95 INHIBITORS AND USES THEREOF” (priority 2021, published 2024).
Where two headings read alike, the source gives them in different places.

Target: T1, plasmin (Homo sapiens, UniProt P00747)
T1 construct: Tissue plasminogen factor (tPA), which generates plasmin from plasminogen
Assay: In vitro plasmin stability assay
Format: in vitro ADME
Conditions: isolated enzyme plasmin
Experimental: At selected time points during the incubation, the ligands were extracted from 80 μL of assay matrix by treatment with 80 μL of 50% acetonitrile (ACN). The samples were filtered and analysed by UPLC to determine the amount of ligand remaining. LC-MS analysis was performed to confirm ligand integrity and identify cleavage sites.

T1 sequence (P00747 581-810 limits assumed, species assumed): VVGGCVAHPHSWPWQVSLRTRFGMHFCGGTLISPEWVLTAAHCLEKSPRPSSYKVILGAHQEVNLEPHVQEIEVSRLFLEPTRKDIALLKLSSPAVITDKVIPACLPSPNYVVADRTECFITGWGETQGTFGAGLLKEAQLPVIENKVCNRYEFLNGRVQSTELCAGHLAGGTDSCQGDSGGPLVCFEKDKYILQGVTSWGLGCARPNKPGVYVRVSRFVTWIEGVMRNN
T1 sequence (P00747 97-580 partner limits assumed, species assumed): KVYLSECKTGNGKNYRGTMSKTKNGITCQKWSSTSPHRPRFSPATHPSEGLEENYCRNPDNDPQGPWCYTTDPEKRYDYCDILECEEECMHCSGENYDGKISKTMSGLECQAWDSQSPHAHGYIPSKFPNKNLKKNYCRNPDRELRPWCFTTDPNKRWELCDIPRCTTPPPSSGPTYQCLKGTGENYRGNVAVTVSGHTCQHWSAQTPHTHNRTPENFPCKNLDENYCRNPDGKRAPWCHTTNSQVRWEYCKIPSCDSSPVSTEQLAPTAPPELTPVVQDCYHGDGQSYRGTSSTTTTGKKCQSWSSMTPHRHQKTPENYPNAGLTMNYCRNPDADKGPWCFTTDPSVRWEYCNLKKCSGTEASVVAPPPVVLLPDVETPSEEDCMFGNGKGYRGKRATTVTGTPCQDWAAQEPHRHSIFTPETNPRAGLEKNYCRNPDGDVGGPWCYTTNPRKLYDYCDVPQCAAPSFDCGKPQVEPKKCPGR

Compound	half-life at 100 μM [h]	other results
CC[C@H](C)[C@H](NC(=O)CCOCCOCCN(CCOCCOCCC(=O)N[C@H](C(=O)N[C@@H](CO)C(=O)N[C@H](C(=O)N[C@@H](CC(=O)O)C(=O)N[C@H](C(=O)O)C(C)C)[C@@H](C)O)[C@@H](C)CC)C(=O)[C@H](CCCNC(=N)N)NC(=O)[C@H](CCCNC(=N)N)NC(=O)[C@H](CCCNC(=N)N)NC(=O)[C@H](CCCNC(=N)N)NC(=O)[C@H](CCCNC(=N)N)NC(=O)[C@H](CCCNC(=N)N)NC(=O)[C@H](CCCNC(=N)N)NC(=O)[C@H](CCCNC(=N)N)NC(=O)[C@H](CCCNC(=N)N)NC(C)=O)C(=O)N[C@@H](CO)C(=O)N[C@H](C(=O)N[C@@H](CC(=O)O)C(=O)N[C@H](C(=O)O)C(C)C)[C@@H](C)O [Compound 31]	23.4 ± 2.07	–
CC(=O)N[C@@H](CCCNC(=N)N)C(=O)N[C@@H](CCCNC(=N)N)C(=O)N[C@@H](CCCNC(=N)N)C(=O)N[C@@H](CCCNC(=N)N)C(=O)N[C@@H](CCCNC(=N)N)C(=O)N[C@@H](CCCNC(=N)N)C(=O)N[C@@H](CCCNC(=N)N)C(=O)N[C@@H](CCCNC(=N)N)C(=O)N[C@@H](CCCNC(=N)N)C(=O)N(CCOCCOCCC(=O)N[C@H](C(=O)N[C@@H](CCC(=O)O)C(=O)N[C@H](C(=O)N[C@H](C(=O)N[C@H](C(=O)O)C(C)C)C(C)C)[C@@H](C)O)C(C)C)CCOCCOCCC(=O)N[C@H](C(=O)N[C@@H](CCC(=O)O)C(=O)N[C@H](C(=O)N[C@H](C(=O)N[C@H](C(=O)O)C(C)C)C(C)C)[C@@H](C)O)C(C)C [Compound 33]	7.98 ± 1.28	–
CC[C@H](C)[C@H](NC(=O)CCOCCOCCN(CCOCCOCCC(=O)N[C@H](C(=O)N[C@@H](CCC(=O)O)C(=O)N[C@H](C(=O)N[C@@H](CC(=O)O)C(=O)N[C@H](C(=O)O)C(C)C)[C@@H](C)O)[C@@H](C)CC)C(=O)[C@@H](CCCNC(=N)N)NC(=O)[C@@H](CCCNC(=N)N)NC(=O)[C@@H](CCCNC(=N)N)NC(=O)[C@@H](CCC(N)=O)NC(=O)[C@@H](CCCNC(=N)N)NC(=O)[C@@H](CCCNC(=N)N)NC(=O)[C@@H](CCCCN)NC(=O)[C@@H](CCCCN)NC(=O)[C@@H](CCCNC(=N)N)NC(=O)CNC(=O)[C@@H](Cc1ccc(O)cc1)NC(C)=O)C(=O)N[C@@H](CCC(=O)O)C(=O)N[C@H](C(=O)N[C@@H](CC(=O)O)C(=O)N[C@H](C(=O)O)C(C)C)[C@@H](C)O [Compound 38]	–	half-life (read-out: T1/2): 24 h
CC[C@H](C)[C@H](NC(=O)CCOCCOCCN(CCOCCOCCC(=O)N[C@H](C(=O)N[C@@H](CCC(=O)O)C(=O)N[C@H](C(=O)N[C@@H](CC(=O)O)C(=O)N[C@H](C(=O)O)C(C)C)[C@@H](C)O)[C@@H](C)CC)C(=O)[C@@H](CCCNC(=N)N)NC(=O)[C@H](CCCNC(=N)N)NC(=O)[C@@H](CCCCN)NC(=O)[C@H](CCCCN)NC(=O)[C@@H](CCCNC(=N)N)NC(=O)CNC(=O)[C@@H](CCCNC(=N)N)NC(=O)[C@H](CCCNC(=N)N)NC(=O)[C@@H](CCCNC(=N)N)NC(C)=O)C(=O)N[C@@H](CCC(=O)O)C(=O)N[C@H](C(=O)N[C@@H](CC(=O)O)C(=O)N[C@H](C(=O)O)C(C)C)[C@@H](C)O [Compound 40]	24	–
CC[C@H](C)[C@H](NC(=O)CCOCCOCCN(CCOCCOCCC(=O)N[C@H](C(=O)N[C@@H](CCC(=O)O)C(=O)N[C@H](C(=O)N[C@@H](CC(=O)O)C(=O)N[C@H](C(=O)O)C(C)C)[C@@H](C)O)[C@@H](C)CC)C(=O)[C@@H](CCCNC(=N)N)NC(=O)[C@@H](CCCNC(=N)N)NC(=O)[C@@H](CCCNC(=N)N)NC(=O)[C@@H](CCCNC(=N)N)NC(=O)[C@@H](CCCNC(=N)N)NC(=O)[C@@H](CCCNC(=N)N)NC(=O)[C@@H](CCCNC(=N)N)NC(=O)[C@@H](CCCNC(=N)N)NC(=O)[C@@H](CCCNC(=N)N)NC(C)=O)C(=O)N[C@@H](CCC(=O)O)C(=O)N[C@H](C(=O)N[C@@H](CC(=O)O)C(=O)N[C@H](C(=O)O)C(C)C)[C@@H](C)O [Compound 44]	24	–
CC[C@H](C)[C@H](NC(=O)CCOCCOCCN(CCOCCOCCC(=O)N[C@H](C(=O)N[C@@H](CCC(=O)O)C(=O)N[C@H](C(=O)N[C@@H](CC(=O)O)C(=O)N[C@H](C(=O)O)C(C)C)[C@@H](C)O)[C@@H](C)CC)C(=O)[C@H](CCCCN)NC(=O)[C@H](CCCCN)NC(=O)[C@H](Cc1c[nH]c2ccccc12)NC(=O)[C@H](CCCCN)NC(=O)[C@H](CCSC)NC(=O)[C@H](CCCNC(=N)N)NC(=O)[C@H](CCCNC(=N)N)NC(=O)[C@H](CC(N)=O)NC(=O)[C@H](CCC(N)=O)NC(=O)[C@H](Cc1ccccc1)NC(=O)[C@H](Cc1c[nH]c2ccccc12)NC(=O)[C@@H](NC(=O)[C@H](CCCCN)NC(=O)[C@@H](NC(=O)[C@H](CCC(N)=O)NC(=O)[C@H](CCCNC(=N)N)NC(C)=O)[C@@H](C)CC)[C@@H](C)CC)C(=O)N[C@@H](CCC(=O)O)C(=O)N[C@H](C(=O)N[C@@H](CC(=O)O)C(=O)N[C@H](C(=O)O)C(C)C)[C@@H](C)O [Compound 46]	–	half-life: 1.57 ± 0.133 h
CC[C@@H](C)[C@@H](NC(=O)[C@@H](CCCCN)NC(=O)[C@H](NC(=O)[C@@H](CCC(N)=O)NC(=O)[C@@H](CCCNC(=N)N)NC(C)=O)[C@H](C)CC)C(=O)N[C@H](Cc1c[nH]c2ccccc12)C(=O)N[C@H](Cc1ccccc1)C(=O)N[C@H](CCC(N)=O)C(=O)N[C@H](CC(N)=O)C(=O)N[C@H](CCCNC(=N)N)C(=O)N[C@H](CCCNC(=N)N)C(=O)N[C@H](CCSC)C(=O)N[C@H](CCCCN)C(=O)N[C@H](Cc1c[nH]c2ccccc12)C(=O)N[C@H](CCCCN)C(=O)N[C@H](CCCCN)C(=O)N(CCOCCOCCC(=O)N[C@H](C(=O)N[C@@H](CCC(=O)O)C(=O)N[C@H](C(=O)N[C@@H](CC(=O)O)C(=O)N[C@H](C(=O)O)C(C)C)[C@@H](C)O)[C@@H](C)CC)CCOCCOCCC(=O)N[C@H](C(=O)N[C@@H](CCC(=O)O)C(=O)N[C@H](C(=O)N[C@@H](CC(=O)O)C(=O)N[C@H](C(=O)O)C(C)C)[C@@H](C)O)[C@@H](C)CC [Compound 48]	–	half-life (read-out: T1/2): 24 h
CC[C@H](C)[C@H](NC(=O)CCOCCOCCN(CCOCCOCCC(=O)N[C@H](C(=O)N[C@@H](CCC(=O)O)C(=O)N[C@H](C(=O)N[C@@H](CC(=O)O)C(=O)N[C@H](C(=O)O)C(C)C)[C@@H](C)O)[C@@H](C)CC)C(=O)[C@H](CO)NC(=O)[C@H](CCC(=O)O)NC(=O)[C@H](CCCNC(=N)N)NC(=O)[C@H](CCCNC(=N)N)NC(=O)[C@H](CCCNC(=N)N)NC(=O)[C@H](CCCCN)NC(=O)[C@H](CCCCN)NC(=O)[C@H](CCCNC(=N)N)NC(=O)[C@H](CO)NC(=O)[C@H](CCC(=O)O)NC(=O)[C@H](CCCNC(=N)N)NC(=O)[C@H](CCCNC(=N)N)NC(=O)[C@H](CCCNC(=N)N)NC(=O)[C@H](CCCCN)NC(=O)[C@H](CCCCN)NC(=O)[C@H](CCCNC(=N)N)NC(C)=O)C(=O)N[C@@H](CCC(=O)O)C(=O)N[C@H](C(=O)N[C@@H](CC(=O)O)C(=O)N[C@H](C(=O)O)C(C)C)[C@@H](C)O [Compound 50]	2.82 ± 0.333	–
